Broadly, the pEC50 is the EC50 on a negative log10 scale, so that one unit is a factor of ten.

pEC50: −log10 of the molar value. A value given as a limit tells only on which side of the number the result lay.

This assay deals with T1, human GLP-1 receptor (Homo sapiens, UniProt P43220).
T1 construct: expressed in transfected cells
T1 sequence (P43220 24-463): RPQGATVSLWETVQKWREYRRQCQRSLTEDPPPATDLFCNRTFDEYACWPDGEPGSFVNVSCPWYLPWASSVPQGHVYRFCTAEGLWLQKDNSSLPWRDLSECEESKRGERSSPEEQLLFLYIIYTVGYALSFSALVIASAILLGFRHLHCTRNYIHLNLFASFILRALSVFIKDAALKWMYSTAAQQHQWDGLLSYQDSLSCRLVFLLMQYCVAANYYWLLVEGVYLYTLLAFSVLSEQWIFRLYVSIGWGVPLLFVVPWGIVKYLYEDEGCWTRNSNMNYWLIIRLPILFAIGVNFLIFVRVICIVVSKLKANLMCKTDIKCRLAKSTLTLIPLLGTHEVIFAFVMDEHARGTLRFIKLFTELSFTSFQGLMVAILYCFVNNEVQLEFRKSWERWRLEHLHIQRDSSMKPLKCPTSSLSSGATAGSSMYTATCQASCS
Put plainly: GLP-1R cAMP Assay. The format is cell-based. Conditions: cAMP accumulation in CHO cells stably overexpressing the human GLP-1 receptor; 30 min treatment; HitHunter cAMP kit; read-out: EC50. In short, it runs like this:
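Luminescent enzyme-complementation detection of cAMP, read after cell lysis and overnight incubation, with dose-response curve fitting. Stimulation lasted 30 min, using 20-point triplicate dosing on CHO cells (10,000 per well) stably overexpressing human GLP-1R.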
On to `Cc1ccc(S(=O)(=O)Nc2cccc(C(=O)N3CCN(Cc4nc5ccc(C(=O)O)cc5n4C[C@@H]4CCO4)CC3)c2)cc1` [Compound 70, 2-({4-[3-(4-methylbenzenesulfonamido)benzoyl]piperazin-1-yl}methyl)-1-{[(2S)-oxetan-2-yl]methyl}-1H-1,3-benzodiazole-6-carboxylic acid], for which the negative logarithm of the EC50 (pEC50) was below 6.30.
As for `CCn1cncc1Cn1c(CN2CCN(C(=O)c3ccc(COc4ccc(Cl)cc4Cl)s3)CC2)nc2ccc(C(=O)O)cc21` [Compound 71, 2-[(4-{5-[(2,4-dichlorophenoxy)methyl]thiophene-2-carbonyl}piperazin-1-yl)methyl]-1-[(1-ethyl-1H-imidazol-5-yl)methyl]-1H-1,3-benzodiazole-6-carboxylic acid], the figure is below 6.30; as for `Cc1ccc(N(C)c2ccc(C)c(C(=O)N3CCN(Cc4nc5ccc(C(=O)O)cc5n4C[C@@H]4CCO4)CC3)c2)c(Cl)c1` [Compound 75, 2-[(4-{5-[(2-chloro-4-methylphenyl)(methyl)amino]-2-methylbenzoyl}piperazin-1-yl)methyl]-1-{[(2S)-oxetan-2-yl]methyl}-1H-1,3-benzodiazole-6-carboxylic acid], above 7.30.
For the compound `CCn1cncc1Cn1c(CN2CCN(C(=O)c3cc(N(C)c4ccc(C)cc4Cl)ccc3C)CC2)nc2ccc(C(=O)O)cc21` [Compound 76, 2-[(4-{5-[(2-chloro-4-methylphenyl)(methyl)amino]-2-methylbenzoyl}piperazin-1-yl)methyl]-1-[(1-ethyl-1H-imidazol-5-yl)methyl]-1H-1,3-benzodiazole-6-carboxylic acid], the negative-log EC50 (pEC50) was above 7.30.
The figure for `CCn1cncc1Cn1c(CN2CCN(C(=O)c3cccc(CN(C)c4ccc(C)cc4Cl)c3)CC2)nc2ccc(C(=O)O)cc21` [Compound 77, 2-{[4-(3-{[(2-chloro-4-methylphenyl)(methyl)amino]methyl}benzoyl)piperazin-1-yl]methyl}-1-[(1-ethyl-1H-imidazol-5-yl)methyl]-1H-1,3-benzodiazole-6-carboxylic acid] is below 6.30; for `CCn1cncc1Cn1c(CN2CCN(C(=O)c3cccc(CNc4ccc(C)cc4Cl)c3)CC2)nc2ccc(C(=O)O)cc21` [Compound 79, 2-{[4-(3-{[(2-chloro-4-methylphenyl)amino]methyl}benzoyl)piperazin-1-yl]methyl}-1-[(1-ethyl-1H-imidazol-5-yl)methyl]-1H-1,3-benzodiazole-6-carboxylic acid] it is below 6.30.
The figure for `Cc1ccc(NCc2cccc(C(=O)N3CCN(Cc4nc5ccc(C(=O)O)cc5n4C[C@@H]4CCO4)CC3)c2)c(Cl)c1` [Compound 80, 2-{[4-(3-{[(2-chloro-4-methylphenyl)amino]methyl}benzoyl)piperazin-1-yl]methyl}-1-{[(2S)-oxetan-2-yl]methyl}-1H-1,3-benzodiazole-6-carboxylic acid] is below 6.30.
Consider `O=C(O)c1ccc2nc(CN3CCN(C(=O)c4ccc(COc5ccc(C6CC6)cc5Cl)o4)CC3)n(C[C@@H]3CCO3)c2c1` [Compound 81, 2-[(4-{5-[(2-chloro-4-cyclopropylphenoxy)methyl]furan-2-carbonyl}piperazin-1-yl)methyl]-1-{[(2S)-oxetan-2-yl]methyl}-1H-1,3-benzodiazole-6-carboxylic acid], for which the pEC50 is 6.30 to 7.30.
In the case of `N#Cc1ccc(COc2cccc(C3CCN(C(=O)c4ccc(-c5nnn[nH]5)cn4)CC3)n2)c(F)c1` [Compound 82, 3-fluoro-4-{[(6-{1-[5-(1H-1,2,3,4-tetrazol-5-yl)pyridine-2-carbonyl]piperidin-4-yl}pyridin-2-yl)oxy]methyl}benzonitrile], the negative logarithm of the EC50 (pEC50) is below 6.30.
Take `O=C(O)c1ccc2nc(CN3CC=C(Cc4ccc(COc5ccc(Cl)cc5Cl)o4)CC3)n(C[C@@H]3CCO3)c2c1` [Compound 84, 2-{[4-({5-[(2,4-dichlorophenoxy)methyl]furan-2-yl}methyl)-1,2,3,6-tetrahydropyridin-1-yl]methyl}-1-{[(2S)-oxetan-2-yl]methyl}-1H-1,3-benzodiazole-6-carboxylic acid]: the pEC50 was above 7.30.
The figure for `Cc1ccc(N(C)c2cncc(C(=O)N3CCN(Cc4nc5ccc(C(=O)O)cc5n4C[C@@H]4CCO4)CC3)c2)c(Cl)c1` [Compound 85, 2-[(4-{5-[(2-chloro-4-methylphenyl)(methyl)amino]pyridine-3-carbonyl}piperazin-1-yl)methyl]-1-{[(2S)-oxetan-2-yl]methyl}-1H-1,3-benzodiazole-6-carboxylic acid] is 6.30 to 7.30.
In the case of `Cc1ccc(N(C)c2cccc(S(=O)(=O)N3CCN(Cc4nc5ccc(C(=O)O)cc5n4C[C@@H]4CCO4)CC3)c2)c(Cl)c1` [Compound 86, 2-[(4-{3-[(2-chloro-4-methylphenyl)(methyl)amino]benzenesulfonyl}piperazin-1-yl)methyl]-1-{[(2S)-oxetan-2-yl]methyl}-1H-1,3-benzodiazole-6-carboxylic acid], the pEC50 is below 6.30.
The figure for `Cc1ccc(N(C)c2cccc(C(=O)N3CC4CCC(C3)N4Cc3nc4ccc(C(=O)O)cc4n3C[C@@H]3CCO3)c2)c(Cl)c1` [Compound 87, 2-[(3-{3-[(2-chloro-4-methylphenyl)(methyl)amino]benzoyl}-3,8-diazabicyclo[3,2.1]octan-8-yl)methyl]-1-{[(2S)-oxetan-2-yl]methyl}-1H-1,3-benzodiazole-6-carboxylic acid] is 6.30 to 7.30; for `Cc1ccc(N(C)c2ccnc(C(=O)N3CCN(Cc4nc5ccc(C(=O)O)cc5n4C[C@@H]4CCO4)CC3)c2)c(Cl)c1` [Compound 88, 2-[(4-{4-[(2-chloro-4-methylphenyl)(methyl)amino]pyridine-2-carbonyl}piperazin-1-yl)methyl]-1-{[(2S)-oxetan-2-yl]methyl}-1H-1,3-benzodiazole-6-carboxylic acid] it is below 6.30.
As for `Cc1ccc(N(C)c2ccc(C3CC3)c(C(=O)N3CCN(Cc4nc5ccc(C(=O)O)cc5n4C[C@@H]4CCO4)CC3)c2)c(Cl)c1` [Compound 93, 2-[(4-{5-[(2-chloro-4-methylphenyl)(methyl)amino]-2-cyclopropylbenzoyl}piperazin-1-yl)methyl]-1-{[(2S)-oxetan-2-yl]methyl}-1H-1,3-benzodiazole-6-carboxylic acid], the figure is 6.30 to 7.30.
For the compound `O=C(c1ccc(-c2nnn[nH]2)nc1)N1CCN(Cc2ccc(COc3ccc(Cl)cc3Cl)o2)CC1` [Compound 97, 1-({5-[(2,4-dichlorophenoxy)methyl]furan-2-yl}methyl)-4-[6-(1H-1,2,3,4-tetrazol-5-yl)pyridine-3-carbonyl]piperazine], the pEC50 is below 6.30.
As for `Cc1ccc(N(C)c2ccc(F)c(C(=O)N3CCN(Cc4nc5ccc(C(=O)O)cc5n4C[C@@H]4CCO4)CC3)c2)c(Cl)c1` [Compound 98, 2-[(4-{5-[(2-chloro-4-methylphenyl)(methyl)amino]-2-fluorobenzoyl}piperazin-1-yl)methyl]-1-{[(2S)-oxetan-2-yl]methyl}-1H-1,3-benzodiazole-6-carboxylic acid], the figure is above 7.30; as for `Cc1ccc(N(C)c2cc(F)cc(C(=O)N3CCN(Cc4nc5ccc(C(=O)O)cc5n4C[C@@H]4CCO4)CC3)c2)c(Cl)c1` [Compound 100, 2-[(4-{3-[(2-chloro-4-methylphenyl)(methyl)amino]-5-fluorobenzoyl}piperazin-1-yl)methyl]-1-{[(2S)-oxetan-2-yl]methyl}-1H-1,3-benzodiazole-6-carboxylic acid], above 7.30.
